Assay results published in patent US8691799B2, “Materials and methods for treatment of cancer and identification of anti-cancer compounds” (priority 2001, dated 2014).
“Also recorded” adds a separate entry of the source.

Tests used:
[1] = test system: v-Src/NIH 3T3 tumors; assay: Antitumor activity, v-Src-transformed NIH 3T3 tumors in nude mice; type: in vivo; conditions: for inhibition of growth of v-src transformed NIH 3T3 tumors (in words): 1 mg/Kg/day intraperitoneally
Description: Antitumor Activity in the Nude Mouse Tumor Xenograft Model. Nude mice and C57 BL-6 black mice (National Cancer Institute, Bethesda, Md.) were maintained in accordance with the Institutional Animal Care and Use Committee (IACUC) procedures and guidelines. v-Src- and oncogenic H-Ras-transformed NIH 3T3, A549, MDA-MB-468 and Calu-1 cells were harvested, resuspended in PBS and injected s.c. into the right and left flank (10×10^6 cells per flank) of 8 week old female nude mice as reported previously (Sun, J. et al. Cancer Res., 1999, 59:4919-4926). Similarly, murine B16-F10 Melanoma cells were injected s.c. into the right and left flank (10^6 cells per flank) of C57 black mice. […] […] The tumor volumes were determined by measuring the length (l) and the width (w) and calculating the volume (V=1w^2/2) as described previously (Sun, J. et al. Cancer Res., 1999, 59:4919-4926). Statistical significance between control and treated animals were evaluated by using Student's t-test. For the mouse survival experiments, C57 BL-6 black mice were implanted s.c. with B16-F10 cells (10^5 to 10^6 cells per flank). […] Percent surviving mice was determined by monitoring the death of mice until all mice died. Two experiments of 12 animals each (6 control and 6 treated with JSI-124) were carried out. For statistical analysis: for each of the two experiments, mice receiving JSI-124 were compared to those receiving vehicle control with respect to survival using the permutation log rank test as implemented in the statistical software package, ProcStatXact (p-values are two sided and exact).

[2] = test system: phosphotyrosine STAT3; assay: Western blotting for phosphotyrosine STAT3 in cancer cell lines; type: cell-based, human; conditions: A-549 cells; for IC50: Western blotting, read-out: IC50 for phospho-STAT3; for inhibition of phospho STAT3 levels (in words): 0-10 μM
Method: (§1) Western Blotting. Treated cell samples were lysed in 30 mM Hepes, pH 7.5, 10 mM NaCl, 5 mM MgCl2, 25 mM NaF, 1 mM EGTA, 1% Triton-X-100, 10% glycerol, 2 mM sodium orthovanadate, 10 μg/ml aprotinin, 10 μg/ml soybean trypsin inhibitor, 25 μg/ml leupeptin, 2 mM PMSF, and 6.4 mg/ml p-nitrophenylphosphate. Phospho-STAT3, phospho-AKT, phospho-MEK, and phospho-p42/p44 MAPK antibodies were obtained from Cell Signaling Technologies, Cambridge, Mass. Antibodies to STAT3, JAK2, and phospho-INK were purchased from Santa Cruz Biotechnology, Santa Cruz, Calif. Phospho-JAK2 antibody came from Upstate Biotechnology, Lake Placid, N.Y. Membranes were blocked in either 5% milk in PBS, pH 7.4, containing 0.1% Tween-20 (PBS-T) or 1% BSA in TBS, pH 7.5, containing 0.1% Tween-20 (TBS-T). Phospho-specific antibodies (excepting P-MAPK and P-JNK) were incubated in 1% BSA in TBS-T while all other antibodies were diluted in 5% milk in PBS-T for either 2 hr at room temperature or overnight at 4° C. HRP-conjugated secondary antibodies (Jackson ImmunoResearch) were diluted in 5% milk in either PBS-T or TBS-T at 1:1000 dilution for one hour at room temperature. Western blots were visualized using enhanced chemiluminescence as described previously (Blaskovich, M. A. et al. Nat. Biotechnol., 2000, 18:1065-1070).
Immunoprecipitation of STAT3. A549 cells were treated for 4 hr with vehicle or JSI-124, then lysed in 150 mM Hepes, pH 7.5, 150 mM NaCl, 1 mM EDTA, 0.5% Nonidet P-40 (NP-40), 10% glycerol, 5 mM NaF, 1 mM DTT, 1 mM PMSF, 2 mM sodium orthovanadate, and 5 μg/ml leupeptin. Sample lysates were collected and cleared, then 500 μg of lysate was immunoprecipitated with 50 ng STAT3 antibody overnight at 4° C. then rocked with 25 μl Protein A/G PLUS agarose (Santa Cruz Biotechnology) for 1 hr at 4° C. Samples were washed four times with lysis buffer then boiled in 2×SDS-PAGE sample buffer and run on 10% SDS-PAGE gel. Protein was transferred to nitrocellulose and then blotted as above for both phospho-specific STAT3 and STAT3.

[3] = Tolerability observations in treated mice; type: in vivo
Description: Antitumor Activity in the Nude Mouse Tumor Xenograft Model. Nude mice and C57 BL-6 black mice (National Cancer Institute, Bethesda, Md.) were maintained in accordance with the Institutional Animal Care and Use Committee (IACUC) procedures and guidelines. v-Src- and oncogenic H-Ras-transformed NIH 3T3, A549, MDA-MB-468 and Calu-1 cells were harvested, resuspended in PBS and injected s.c. into the right and left flank (10×10^6 cells per flank) of 8 week old female nude mice as reported previously (Sun, J. et al. Cancer Res., 1999, 59:4919-4926). Similarly, murine B16-F10 Melanoma cells were injected s.c. into the right and left flank (10^6 cells per flank) of C57 black mice. When tumors reached about 150 mm^3, animals were randomized (five animals per group; two tumors per animal) and dosed i.p. with 0.2 ml once daily. […] The tumor volumes were determined by measuring the length (l) and the width (w) and calculating the volume (V=1w^2/2) as described previously (Sun, J. et al. Cancer Res., 1999, 59:4919-4926). Statistical significance between control and treated animals were evaluated by using Student's t-test. For the mouse survival experiments, C57 BL-6 black mice were implanted s.c. with B16-F10 cells (10^5 to 10^6 cells per flank). On day 5 after implantation the mice were randomized (6 animals per group) and treated with either vehicle or JSI-124 (1 mg/Kg/day) for 25 days. Percent surviving mice was determined by monitoring the death of mice until all mice died. Two experiments of 12 animals each (6 control and 6 treated with JSI-124) were carried out. For statistical analysis: for each of the two experiments, mice receiving JSI-124 were compared to those receiving vehicle control with respect to survival using the permutation log rank test as implemented in the statistical software package, ProcStatXact (p-values are two sided and exact).

[4] = test system: phosphotyrosine JAK2; assay: Western blotting for phosphotyrosine JAK2; type: cell-based, human; conditions: A-549 cells; for IC50: Western blotting, read-out: IC50 for phospho-JAK2; for inhibition of phospho JAK2 levels (in words): 0-10 μM
Method: as §1

Row | Compound | IC50 [2] [nM] | IC50 [4] [nM] | inhibition of growth of v-src transformed NIH 3T3 tumors (in words) [1] | inhibition of phospho STAT3 levels (in words) [2] | inhibition of phospho JAK2 levels (in words) [4] | other results
1 | CC(=O)OC(C)(C)/C=C/C(=O)[C@](C)(O)[C@H]1[C@H](O)C[C@@]2(C)[C@@H]3CC=C4[C@H](C[C@H](O)C(=O)C4(C)C)[C@]3(C)C(=O)C[C@]12C [cucurbitacin B] | 4000 | 200 | – | – | – | inhibition of growth of v-Src/NIH 3T3 tumors, 0.2 mpk/day ([1]; 0.2 mpk/day): 40%; additional loss of inhibitory activity against phosphotyrosine-STAT3 versus cucurbitacin E [2]: five-fold; toxicity in tumor-bearing nude mice at 1 mpk ([3]; 1 mg/kg/day i.p.): toxic; toxicity in tumor-bearing nude mice at 0.2 mpk/day ([3]; 0.2 mpk/day (200 μg/kg/day)): not toxic
2 | CC(C)(O)/C=C/C(=O)[C@](C)(O)[C@H]1[C@H](O)C[C@@]2(C)[C@@H]3CC=C4[C@@H](C[C@H](O)C(=O)C4(C)C)[C@]3(C)C(=O)C[C@]12C [cucurbitacin D] | – | – | – | – | – | reduction of activity against phospho STAT3 versus cucurbitacin B [2]: 2 fold; change of activity against phospho JAK2 versus cucurbitacin B [4]: no effects
3 | CC(C)(O)CCC(=O)[C@](C)(O)[C@H]1[C@H](O)C[C@@]2(C)[C@@H]3CC=C4[C@@H](C[C@H](O)C(=O)C4(C)C)[C@]3(C)C(=O)C[C@]12C [tetrahydro-cucurbitacin I] | – | – | inhibit tumor growth | – | – | change of activity against phospho-STAT3 versus cucurbitacin I [2]: reduction of activity against phospho-STAT3 and phospho JAK2; change of activity against phospho JAK2 versus cucurbitacin I [4]: reduction of activity against phospho-STAT3 and phospho JAK2
4 | CC(=O)OC(C)(C)/C=C/C(=O)[C@](C)(O)[C@H]1[C@H](O)C[C@@]2(C)[C@@H]3CC=C4[C@@H](C=C(O)C(=O)C4(C)C)[C@]3(C)C(=O)C[C@]12C [cucurbitacin E] | 800 | 200 | inhibit tumor growth | – | – | loss of activity against phospho-STAT3 versus cucurbitacin I [2]: four-fold
5 | CC(=O)OC(C)(C)/C=C/C(=O)[C@](C)(O)[C@H]1[C@H](O)C[C@@]2(C)[C@@H]3CC=C4[C@@H](C[C@H](O)C(=O)C4(C)C)[C@]3(CO)C(=O)C[C@]12C [cucurbitacin A] | > 10000 | 1000 | did not significantly inhibit tumor growth | not phospho STAT3 levels; also recorded: no phospho STAT3 levels | inhibits only phospho JAK2 | inhibition of growth of v-src transformed NIH 3T3 tumors (in words) ([1]; listed as curbitacin A): did not; inhibition of growth of v-Src/NIH 3T3 tumors ([1]; 1 mg/kg/day i.p.): 16%
6 | cucurbitacin Q | 2000 | > 10000 | inhibit tumor growth; also recorded: as potent as curcubatacin I at inhibiting tumor growth | inhibits phospho STAT3 | not phospho JAK2 levels | inhibition of growth of v-src transformed NIH 3T3 tumors (in words) ([1]; listed as Cucurbitacin Q): as potent as cucurbatacin I at inhibiting tumor growth; gain in activity against STAT3 activation versus cucurbitacin B [2]: 2 fold
